Laboratory results as given in patent publication US20250345277A1, “Ionizable Liposome, Preparation Thereof, and Application Thereof in Gene Delivery” (MAXIRNA (ZHEJIANG) TECHNOLOGY CO. LTD., priority 2021, published 2025).

Legend:
[1] = Size and polydispersity index PDI of lipid nanoparticles (Malvern Zetasizer Nano ZS); format: physicochemical; conditions: LNP ionizable lipid/DOPE/cholesterol/DSPE-PEG2000 35/16/46.5/2.5 mol% encapsulating EGFP mRNA; for Particle Size: in nm (unit assumed)
Procedure, shortened: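 LNPs of ionizable lipid/DOPE/cholesterol/DSPE-PEG2000 (35/16/46.5/2.5 mol %) encapsulating EGFP mRNA, made by microfluidic mixing (ethanol lipid:citrate pH 6.1 aqueous 1:3 by volume; lipid:mRNA ~10:1 w/w). Buffer-exchanged into DPBS, 0.2 μm filtered. Size and PDI by dynamic light scattering at […] backscatter angle.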

[2] = system: PBMC cells; experiment: In vitro transfection of PBMC cells with EGFP mRNA LNP preparation (flow cytometry); format: cell-based; design: Cell Viability: concentration or dose not given beside the values; conditions: PBMCs; for Cell Viability / Positive Rate (EGFP): LNP preparation added with ApoE4; for Fluorescence Intensity: with ApoE4, EGFP mRNA expression level normalized based on the sample with the highest fluorescence intensity
Excerpt: The description is based on peripheral blood mononuclear cells PBMC (Shanghai Oribiotech Co., Ltd.), human peripheral blood leukemia T cell Jurkat (ATCC), tumor infiltrating lymphocyte TIL (isolated from resected tumor tissue of a liver cancer patient, the preparation method refers to CN114763530A), mouse bone marrow-derived dendritic cells DC2.4 (Cell Bank of the Chinese Academy of Sciences), and Chinese hamster ovary cells CHO (ATCC) were used as verified cell lines for liposome transfection. PBMC, Jurkat, and TIL cells grew in suspension, while DC2.4 and CHO cells grew by adherent culture. All the operation steps of cell culture must strictly abide by the prescribed procedures, and sterile reagents is used to perform aseptic operations under a sterile workbench. The main steps are as follows: • 1) Cell recovery: the preserved cell cryopreservation solution was taken out of the −80° C. refrigerator, and was immediately put in a 37° C. water bath for rapid and continuous shaking, and was completely melted within one minute. Fresh medium was added to the 15 mL centrifuge tube in advance, and the cell solution was added to the centrifuge tube in a biological safety cabinet. A centrifuge tube of the same quality was taken and placed symmetrically in a centrifuge, centrifuged at a low speed at 1200 rpm for 5 min. After centrifugation, the supernatant was removed, and an appropriate amount of medium was slowly added along the tube wall. After the cells were evenly dispersed by blowing gently, the cell suspension was pipette and added to the culture bottle prepared in advance. The state and distribution of the cells in the early stage of recovery were observed under a microscope. The culture bottle was placed in a 5% CO2 incubator and incubated at 37° C., and the recovery time was recorded. • 2) Cell subculture: Under the microscope, if the cell density in the field of view reaches 80%-90%, the cells can be subcultured. Adherent cells need to be digested with trypsin. In order to avoid the residual serum in the culture medium to reduce the activity of trypsin, DPBS solution was added to wash once after removing the original culture medium. After remove the DPBS solution, trypsin was added to degrade the protein at the junction between cells. This separates the cells for further culture. The cells were gently shaked evenly and put into the incubator for digestion for 2 min. Immediately after the digestion was completed, an appropriate amount of medium was added to the original petri dish to terminate the digestion. Finally, the cells were carefully blowed off using a pipette and blowed until they are evenly dispersed, and then inoculated and subcultured at a certain ratio according to the experimental requirements.
• 1) Coating antibodies: 6-well plates were pre-coated, CD3 and CD28 antibodies were taken out from the −20° C. refrigerator, and melted for later use. The above two antibodies were added into the DPBS solution at a concentration of 5 µg/mL, mixed well, added into a six-well plate at 1 mL/well, put in a 37° C. incubator, and waited 4 hours for later use. • 2) PBMC recovery: the frozen PBMC cells were taken out from the −80° C. refrigerator, put in a 37° C. water bath to quickly thaw the cells, added to the preheated medium after thawing, centrifuged at 1200 rpm for 5 min, the supernatant was discarded, and an appropriate amount of AIMN-V medium with 500 U/ml IL-2 was added to resuspend PBMC. • 3) the DPBS coated with the antibody was removed with a pipette, the cell suspension was transferred to a six-well plate pre-coated with the antibody at 4 mL per well, placed in a 5% CO2 incubator at 37° C. for 3-5 days for activation and culture. • 4) According to the experimental arrangement, PBMC cells were plated on a 24-well plate 30 minutes in advance on the day of cell transfection. […]

[3] = Entrapment efficiency of LNP preparation encapsulating EGFP mRNA; format: physicochemical; conditions: LNP ionizable lipid/DOPE/cholesterol/DSPE-PEG2000 35/16/46.5/2.5 mol% encapsulating EGFP mRNA
Procedure, shortened: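 LNPs of ionizable lipid/DOPE/cholesterol/DSPE-PEG2000 (35/16/46.5/2.5 mol %) made by microfluidic mixing of ethanol lipids with EGFP mRNA in 20 mM citrate pH 6.1 (1:3 by volume), lipid:mRNA about 10:1 by weight. Buffer exchanged to DPBS by ultrafiltration, then 0.2 μm filtered; mRNA 0.002–0.5 mg/mL.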

Row | SMILES | PDI [1] | Particle Size [1] | Cell Viability [2] [%] | Positive Rate (EGFP) [2] [%] | Fluorescence Intensity [2] | Entrapment Efficiency [3] [%]
1 | CCCCCCCCCCCCC(O)CN(CCOCCN(CCOCCN(CC(O)CCCCCCCCCCCC)CC(O)CCCCCCCCCCCC)CCN1CCN(C)CC1)CC(O)CCCCCCCCCCCC (stereo not drawn) [F-C14] | 0.131 | 82.4 | 83.20 | 63.70 | 0.16 | 95.21
2 | CCCCCCCCCCCCC(O)CN(CCOCCOCCN(CCOCCOCCN(CC(O)CCCCCCCCCCCC)CC(O)CCCCCCCCCCCC)CCN1CCN(C)CC1)CC(O)CCCCCCCCCCCC (stereo not drawn) [G-C14] | 0.180 | 86.4 | 79.40 | 63.40 | 0.1 | 84.02
3 | CCCCCCCCCCCCC(O)CN(CCOCCOCCOCCN(CCOCCOCCOCCN(CC(O)CCCCCCCCCCCC)CC(O)CCCCCCCCCCCC)CCN1CCN(C)CC1)CC(O)CCCCCCCCCCCC (stereo not drawn) [H-C14] | 0.099 | 94.8 | 81.70 | 62.10 | 0.07 | 91.67
